The text below walks through data of patent US5218089A, “Retro-inverso analogues of thymopentin and the method for their synthesis” (Sclavo S.p.A., priority 1988, dated 1993).

Data set [1] concerns lymphocytes which secrete antibodies (PFC). As to the kind of experiment: Hemolysis plaque (PFC) test of Jerne and Nordin in SRBC-immunized mice. Format: in vivo, C3H/HeNCr1Br inbred male mice. The note with it: 1 ng of peptide orally 2 hours after SRBC i.v., spleen lymphocytes after 4 days, IgM PFC. As to the method:
Specifically, hemolysis plates (PFC) were used for the test, which was conducted by the method described by Jerne and Nordin. The test was carried out by intravenously administering to C3H/HeNCr1Br inbred male mice (Calco-Italia) of 10-12 weeks and about 25 g body weight an apyrogenic saline solution (0.2 ml) containing 1-2×10^8 red blood cells from sheep (SRBC). After two hours, groups each containing 3 mice were treated orally (intragastric tube) with 0.2 ml of saline solution (control) or with 0.2 ml of saline solution containing 1 ng of peptide. After 4 days the mice were killed and the spleen withdrawn and dissociated mechanically to separate the lymphocytes. The thus isolated lymphocytes were washed with minimum essential medium (MEM) (3×15 ml) containing Earle's salts and then resuspended in the same medium (1 ml) at a final concentration of 150,000 cells. Each cell suspension (0.1 ml) was then diluted 1:100 with MEM, 100 μl of each dilution being doubly added to microplate wells containing 25 μl of MEM, 25 μl of a 10% solution of SRBC antigens and 25 μl of guinea pig complement at a final dilution of 1:64. The entire suspension was immediately transferred by capillarity from each well to superimposed slides. […]
At the end of this period the direct hemolysis plaques indicating the number of lymphocytes which secrete antibodies (PFC) are counted by a light contrast viewer.

The nature of a further data set: in vitro. The note with it: human, heparinized human plasma.
The nature of data set [2]: Stability towards enzymatic hydrolysis in heparinized human plasma. The note with it: 37° C., about 30 nmoles/ml of plasma.
Procedure: (§1) The incubations were done at 37° C., and the withdrawn samples of the plasmatic mixture, of 100 μl each, were blocked at the various times by adding trifluoroacetic acid to the extent of 10%, followed by centrifuging at 10,000g for 5 minutes. An aliquot of the supernatant was chromatographed under conditions suitable for showing the change in the peptide concentration at the various times.
For data set [3] the following is noted: action of various proteases; cited from earlier work.

Procedure for in vitro: as §1

For orientation: half-life means the time needed for the level to fall by half in the phase considered. A higher half-life goes with slow loss. Take `CC(C)[C@H](NC(=O)[C@H](CC(=O)O)NC(=O)C(CCCCN)C(=O)N[C@@H](N)CCCNC(=N)N)C(=O)N[C@@H](Cc1ccc(O)cc1)C(=O)O` (some centres unmarked): the “Plaque formation % control” value in data set [1] is 112 % control. Also, the half-life in the data set “in vitro” came out at 22 min. The “Stability towards enzymatic hydrolysis in human plasma (t/2 in minutes)” value (“Stability towards enzymatic hydrolysis” for short) in data set [2] came to 22 min.
`CC(C)C(C(=O)N[C@H](CC(=O)O)NC(=O)C(CCCCN)C(=O)N[C@@H](N)CCCNC(=N)N)C(=O)N[C@@H](Cc1ccc(O)cc1)C(=O)O` (some centres unmarked) [Example 1]: the half-life in “in vitro” is greater than 300 min. The “Stability towards enzymatic hydrolysis” value in data set [2] is greater than 300 min.
For “H-RKDVY-OH [TP5, H-Arg-Lys-Asp-Val-Tyr-OH]”, the “Plaque formation % control” value in data set [1] amounted to 104 % control. Further, in data set [3], the “t1/2 in the plasma” value is reported as 1.5 min. Also, the “Stability towards enzymatic hydrolysis” value in data set [2] is listed as “≈ 1.5 minutes”.
